Source: patent US20230192661A1, “1, 4, 5, 6-TETRAHYDROPYRIMIDINE-2-AMINE DERIVATIVE” (UBE Corporation, priority 2020, published 2023)

Key:
[1] = Transcellular transport test using Caco2 cell; assay type: in vitro ADME; details: human, Caco-2; Caco2 monolayer, A-to-B, 10 μM compound, pH 7.4, 90 minutes
Experimental: Caco2 cells (purchased from ATCC) were cultured in DMEM medium (Thermo Fisher Scientific, Inc., 11965) containing 10% FBS (Thermo Fisher Scientific, Inc., 10082) and 1% penicillin/streptomycin/amphotericin B (Thermo Fisher Scientific, Inc., 15240). A transcellular transport test was carried out in accordance with MultiScreen Caco2 Drug Transport Assembly in a 96-well system (Application Note AN1727EN, MultiScreen Caco-2 Assay System, Merck) by partially modifying it. The Caco2 cells were inoculated at a cell density of 4×10^4 cells/well onto a micropore polycarbonate insert of a 96-well plate (Merck, Millcell-96 culture insert plate 0.4 μm pore size, well membrane area=0.11 cm^2, PSHT004S5) and cultured for 20 to 22 days, and the resulting monolayer was used in the transcellular transport test. The medium of the inoculated cells was replaced with a fresh one every 3 to 4 days.
Apical-to-basolateral (A-to-B) transport in the Caco2 cell monolayer membrane was performed by using HBSS (Thermo Fisher Scientific, Inc., 14025) medium (pH=7.4) containing 20 mM HEPES (Thermo Fisher Scientific, Inc., 15630), and adding HEPES-containing HBSS medium containing 10 μM compound (a 10 mM solution of the compound in DMSO was added at a 1000-fold dilution; final DMSO concentration: 0.1%) at 75 μL/well to the apical side and HEPES-containing HBSS medium supplemented with no compound at 250 μL/well to the basolateral side, followed by culture at 37° C. for 90 minutes. After culture, a 100 μL aliquot was collected from the basolateral side, and the concentration of a permeated compound was measured by LC-MS/MS under measurement conditions mentioned later. Papp (apparent permeability; cm/sec) was calculated from the determined concentration. Papp was determined according to the expression given below by calculating the slope (dA/dt; nmol/sec) of a straight line drawn between two points 0 minutes and zero amount of the compound in a graph plotted with an assay time (90 min) on the abscissa against the amount of the compound in the solution on the permeated side on the ordinate. As for an assay concentration, the concentration in the compound in the HEPES-containing HBSS medium containing the added compound was measured by UV-HPLC under measurement conditions mentioned later.
Papp (cm/sec)=C0×S×(dA/dt)
C0: assay concentration, S: plate membrane area=0.11 cm^2

αvβ6 = target: T1, αvβ6 (Homo sapiens, UniProt P06756+P18564); assay: αvβ6 cell adhesion inhibition test (HT-29 cells on recombinant human LAP protein); assay type: cell-based; details: recombinant human LAP coating, 200 μM MnCl2, 1 hour, read-out: IC50 (rate of inhibition of cell adhesion, αvβ6)
T1 construct: endogenous in cells; host or cells: HT-29 cells
Experimental: Test Example 2 was performed by partially modifying the method of Henderson et al. (Nat Med., 19 (12), 1617-24, 2013). In Test Example 2, the same reagents as in Test Example 1 were used unless otherwise specified.
Recombinant human LAP protein (manufactured by R&D Systems, Inc., 246-LP-025) was prepared at […] with PBS, dispensed at 100 μL/well to a 96-well plate, and left standing overnight. The plate was washed with HBSS, then subjected to blocking treatment with DMEM containing 1% BSA, and used as a coated plate in the adhesion test.
HT-29 cells cultured in McCoy's 5A medium (manufactured by Thermo Fisher Scientific, Inc., 16600) containing 10% FBS and 1% penicillin/streptomycin/amphotericin B were recovered and suspended in DMEM containing 0.1% BSA and 200 μM MnCl2 to prepare a cell suspension. A test compound was added thereto.
The cell suspension of 5×10^5 cells/mL containing the test compound was added at 100 μL/well to the coated plate and left standing for 1 hour in a 5% CO2 incubator (37° C.). One hour later, the supernatant was removed, and the plate was washed with HBSS containing 200 μM MnCl2. The cells that adhered to each well in the plate were stained with crystal violet, and the cells were lysed, followed by absorbance measurement. Inhibition without substrate coating was defined as 100% inhibition, and inhibition when DMSO was added instead of the test compound was defined as 0% inhibition. The rate of inhibition of cell adhesion by the test compound was calculated according to the following expression.
Rate of inhibition of cell adhesion (%)=[1−{(Absorbance in the case of adding the test compound)−(Absorbance without substrate coating)}/{(Absorbance in the case of adding DMS)−(Absorbance without substrate coating)}]×100
An IC50 value was calculated from the rate of inhibition of cell adhesion by the test compound. A: IC50<3 nM, B: 3 nM≤IC50<10 nM, C: 10 nM≤IC50<30 nM, D: 30 nM≤IC50<100 nM, or E: IC50≥100 nM.

T1 sequence (P06756 31-889 limits assumed): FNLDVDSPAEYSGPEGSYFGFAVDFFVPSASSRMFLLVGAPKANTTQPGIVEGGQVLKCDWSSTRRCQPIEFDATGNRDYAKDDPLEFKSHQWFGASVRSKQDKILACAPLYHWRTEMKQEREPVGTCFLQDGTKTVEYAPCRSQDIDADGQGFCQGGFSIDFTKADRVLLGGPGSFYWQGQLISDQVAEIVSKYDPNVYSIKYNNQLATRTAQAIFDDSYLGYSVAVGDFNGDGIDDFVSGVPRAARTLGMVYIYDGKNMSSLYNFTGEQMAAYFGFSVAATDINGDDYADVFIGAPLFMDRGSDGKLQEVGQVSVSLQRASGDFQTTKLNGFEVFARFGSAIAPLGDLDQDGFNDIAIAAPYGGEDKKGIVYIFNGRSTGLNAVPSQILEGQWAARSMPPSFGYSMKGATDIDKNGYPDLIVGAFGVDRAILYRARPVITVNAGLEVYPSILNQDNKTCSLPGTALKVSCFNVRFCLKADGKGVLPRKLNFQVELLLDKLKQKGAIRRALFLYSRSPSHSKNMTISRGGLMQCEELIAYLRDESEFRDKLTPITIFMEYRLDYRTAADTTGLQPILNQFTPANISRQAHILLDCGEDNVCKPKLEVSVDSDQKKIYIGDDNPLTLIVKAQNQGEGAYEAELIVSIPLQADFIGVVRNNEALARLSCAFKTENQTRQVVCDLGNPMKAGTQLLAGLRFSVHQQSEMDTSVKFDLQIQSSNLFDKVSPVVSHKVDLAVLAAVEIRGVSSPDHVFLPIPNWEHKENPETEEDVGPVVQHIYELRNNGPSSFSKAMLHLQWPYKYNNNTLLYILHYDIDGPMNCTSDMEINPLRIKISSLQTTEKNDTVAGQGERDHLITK
T1 sequence (P06756 891-1048 limits assumed): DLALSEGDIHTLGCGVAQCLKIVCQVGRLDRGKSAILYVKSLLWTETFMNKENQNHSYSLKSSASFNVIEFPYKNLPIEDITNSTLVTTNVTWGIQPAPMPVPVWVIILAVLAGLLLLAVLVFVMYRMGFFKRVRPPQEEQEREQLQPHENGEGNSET
T1 sequence (P18564 22-788): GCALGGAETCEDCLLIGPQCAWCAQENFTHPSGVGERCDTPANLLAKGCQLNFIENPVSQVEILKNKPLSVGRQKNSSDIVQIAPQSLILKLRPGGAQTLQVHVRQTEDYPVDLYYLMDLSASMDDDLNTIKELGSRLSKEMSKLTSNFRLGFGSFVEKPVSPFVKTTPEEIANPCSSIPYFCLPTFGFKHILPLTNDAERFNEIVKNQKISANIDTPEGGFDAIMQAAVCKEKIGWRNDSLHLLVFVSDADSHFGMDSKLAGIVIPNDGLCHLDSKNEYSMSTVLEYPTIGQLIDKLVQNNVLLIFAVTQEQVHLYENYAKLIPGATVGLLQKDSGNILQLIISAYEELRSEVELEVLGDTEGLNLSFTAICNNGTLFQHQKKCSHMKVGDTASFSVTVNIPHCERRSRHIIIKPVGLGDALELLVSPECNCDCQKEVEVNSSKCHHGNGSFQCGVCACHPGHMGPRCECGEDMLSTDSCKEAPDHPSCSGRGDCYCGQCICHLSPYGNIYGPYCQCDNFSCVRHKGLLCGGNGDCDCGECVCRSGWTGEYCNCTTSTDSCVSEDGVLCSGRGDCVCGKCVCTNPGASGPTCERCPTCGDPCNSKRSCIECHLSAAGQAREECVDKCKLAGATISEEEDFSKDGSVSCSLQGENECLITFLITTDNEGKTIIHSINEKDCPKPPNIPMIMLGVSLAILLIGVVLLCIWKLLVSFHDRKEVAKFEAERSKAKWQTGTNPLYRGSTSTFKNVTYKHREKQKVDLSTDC

Row | SMILES | Papp A→B at 90 min, 10 μM [1] [×10⁻⁶ cm/s] | IC50 (αvβ6) [nM]
1 | O=C(O)C[C@H](NC(=O)CNC(=O)c1cc(NC2=NCC(F)CN2)c2cn[nH]c2c1)c1cc(Cl)cc(C(F)(F)F)c1 (stereo partly drawn) [Example 1-(b), (3S)-3-(3-chloro-5-(trifluoromethyl)phenyl)-3-(2-(4-((5-fluoro-1,4,5,6-tetrahydropyrimidin-2-yl)amino)-1H-indazole-6-carboxamido)acetamido)propanoic acid] | > 1 | < 3
2 | O=C(O)C[C@H](NC(=O)CNC(=O)c1cc(NC2=NCC(F)CN2)c2cn[nH]c2c1)c1cc(Br)cc(C(F)(F)F)c1 (stereo partly drawn) [Example 2-(b), (3S)-3-(3-bromo-5-(trifluoromethyl)phenyl)-3-(2-(4-((5-fluoro-1,4,5,6-tetrahydropyrimidin-2-yl)amino)-1H-indazole-6-carboxamido)acetamido)propanoic acid] | 0.5 to 1 | < 3
3 | O=C(O)C[C@H](NC(=O)CNC(=O)c1cc(NC2=NCC(F)CN2)c2cn[nH]c2c1)c1cc(I)cc(C(F)(F)F)c1 (stereo partly drawn) [Example 3-(b), (3S)-3-(2-(4-((5-fluoro-1,4,5,6-tetrahydropyrimidin-2-yl)amino)-1H-indazole-6-carboxamido)acetamido)-3-(3-iodo-5-(trifluoromethyl)phenyl)propanoic acid] | > 1 | < 3
4 | Cc1cc([C@H](CC(=O)O)NC(=O)CNC(=O)c2cc(NC3=NCC(F)CN3)c3cn[nH]c3c2)cc(C(F)(F)F)c1 (stereo partly drawn) [Example 4-(b), (3S)-3-(2-(4-((5-fluoro-1,4,5,6-tetrahydropyrimidin-2-yl)amino)-1H-indazole-6-carboxamido)acetamido)-3-(3-methyl-5-(trifluoromethyl)phenyl)propanoic acid] | > 1 | < 3
5 | COc1cc([C@H](CC(=O)O)NC(=O)CNC(=O)c2cc(NC3=NCC(F)CN3)c3cn[nH]c3c2)cc(C(F)(F)F)c1 (stereo partly drawn) [Example 5-(b), (3S)-3-(2-(4-((5-fluoro-1,4,5,6-tetrahydropyrimidin-2-yl)amino)-1H-indazole-6-carboxamido)acetamido)-3-(3-methoxy-5-(trifluoromethyl)phenyl)propanoic acid] | 0.5 to 1 | < 3
6 | O=C(O)C[C@H](NC(=O)CNC(=O)c1cc(NC2=NCC(F)CN2)c2cn[nH]c2c1)c1cc(F)cc(C(F)(F)F)c1 (stereo partly drawn) [Example 6-(b), (3S)-3-(2-(4-((5-fluoro-1,4,5,6-tetrahydropyrimidin-2-yl)amino)-1H-indazole-6-carboxamido)acetamido)-3-(3-fluoro-5-(trifluoromethyl)phenyl)propanoic acid] | > 1 | 3 to 10
7 | O=C(O)C[C@H](NC(=O)CNC(=O)c1cc(NC2=NCC(F)CN2)c2cn[nH]c2c1)c1cc(C(F)(F)F)cc(C(F)(F)F)c1 (stereo partly drawn) [Example 7-(b), (3S)-3-(3,5-bis(trifluoromethyl)phenyl)-3-(2-(4-((5-fluoro-1,4,5,6-tetrahydropyrimidin-2-yl)amino)-1H-indazole-6-carboxamido)acetamido)propanoic acid] | 0.5 to 1 | < 3
8 | O=C(O)C[C@H](NC(=O)CNC(=O)c1cc(NC2=NCC(F)CN2)c2cn[nH]c2c1)c1cc(-n2cccn2)cc(C(F)(F)F)c1 (stereo partly drawn) [Example 8-(b), (3S)-3-(3-(1H-pyrazol-1-yl)-5-(trifluoromethyl)phenyl)-3-(2-(4-((5-fluoro-1,4,5,6-tetrahydropyrimidin-2-yl)amino)-1H-indazole-6-carboxamido)acetamido)propanoic acid] | 0.5 to 1 | < 3
9 | O=C(O)C[C@H](NC(=O)CNC(=O)c1cc(NC2=NCC(F)CN2)c2cn[nH]c2c1)c1cccc(C(F)(F)F)c1F (stereo partly drawn) [Example 9-(b), (3S)-3-(2-(4-((5-fluoro-1,4,5,6-tetrahydropyrimidin-2-yl)amino)-1H-indazole-6-carboxamido)acetamido)-3-(2-fluoro-3-(trifluoromethyl)phenyl)propanoic acid] | > 1 | < 3
10 | O=C(O)C[C@H](NC(=O)CNC(=O)c1cc(NC2=NCC(F)CN2)c2cn[nH]c2c1)c1cccc(C(F)(F)F)c1Cl (stereo partly drawn) [Example 10-(b), (3S)-3-(2-chloro-3-(trifluoromethyl)phenyl)-3-(2-(4-((5-fluoro-1,4,5,6-tetrahydropyrimidin-2-yl)amino)-1H-indazole-6-carboxamido)acetamido)propanoic acid] | > 1 | ≥ 100
11 | O=C(O)C[C@H](NC(=O)CNC(=O)c1cc(NC2=NCC(F)CN2)c2cn[nH]c2c1)c1cc(C(F)(F)F)ccc1F (stereo partly drawn) [Example 11-(b), (3S)-3-(2-(4-((5-fluoro-1,4,5,6-tetrahydropyrimidin-2-yl)amino)-1H-indazole-6-carboxamido)acetamido)-3-(2-fluoro-5-(trifluoromethyl)phenyl)propanoic acid] | > 1 | < 3
12 | O=C(O)C[C@H](NC(=O)CNC(=O)c1cc(NC2=NCC(F)CN2)c2cn[nH]c2c1)c1cc(C(F)(F)F)ccc1Cl (stereo partly drawn) [Example 12-(b), (3S)-3-(2-chloro-5-(trifluoromethyl)phenyl)-3-(2-(4-((5-fluoro-1,4,5,6-tetrahydropyrimidin-2-yl)amino)-1H-indazole-6-carboxamido)acetamido)propanoic acid] | > 1 | 3 to 10
13 | O=C(O)C[C@H](NC(=O)CNC(=O)c1cc(NC2=NCC(F)CN2)c2cn[nH]c2c1)c1ccc(F)c(C(F)(F)F)c1 (stereo partly drawn) [Example 13-(b), (3S)-3-(2-(4-((5-fluoro-1,4,5,6-tetrahydropyrimidin-2-yl)amino)-1H-indazole-6-carboxamido)acetamido)-3-(4-fluoro-3-(trifluoromethyl)phenyl)propanoic acid] | > 1 | < 3
14 | Cc1ccc([C@H](CC(=O)O)NC(=O)CNC(=O)c2cc(NC3=NCC(F)CN3)c3cn[nH]c3c2)cc1C(F)(F)F (stereo partly drawn) [Example 14-(b), (3S)-3-(2-(4-((5-fluoro-1,4,5,6-tetrahydropyrimidin-2-yl)amino)-1H-indazole-6-carboxamido)acetamido)-3-(4-methyl-3-(trifluoromethyl)phenyl)propanoic acid] | > 1 | < 3
15 | O=C(O)C[C@H](NC(=O)CNC(=O)c1cc(NC2=NCC(F)CN2)c2cn[nH]c2c1)c1cc(Cl)c(F)c(C(F)(F)F)c1 (stereo partly drawn) [Example 15-(b), (3S)-3-(3-chloro-4-fluoro-5-(trifluoromethyl)phenyl)-3-(2-(4-((5-fluoro-1,4,5,6-tetrahydropyrimidin-2-yl)amino)-1H-indazole-6-carboxamido)acetamido)propanoic acid] | > 1 | < 3
16 | COc1ccc([C@H](CC(=O)O)NC(=O)CNC(=O)c2cc(NC3=NCC(F)CN3)c3cn[nH]c3c2)cc1Br (stereo partly drawn) [Example 16-(b), (3S)-3-(3-bromo-4-methoxyphenyl)-3-(2-(4-((5-fluoro-1,4,5,6-tetrahydropyrimidin-2-yl)amino)-1H-indazole-6-carboxamido)acetamido)propanoic acid] | > 1 | < 3
